From patent US10894817B2, “Fatty acid modified urocortin-2 analogs for the treatment of diabetes and chronic kidney disease” (priority 2016, dated 2021)
Starred links: 1 amine or outer side, 2 acyl side, 3 side chain; linkers in the order of their positions; H or OH if unused. Non-standard residues stand in square brackets, D forms with d. Residues, ends and D or L forms follow the SMILES beside them. Groups on a side chain read outwards from the residue. *: point of attachment. C20 diacid = O=C(O)CCCCCCCCCCCCCCCCCCC(=O)*; C18 diacid = O=C(O)CCCCCCCCCCCCCCCCC(=O)*; γGlu = O=C(O)[C@H](CCC(=O)[*:2])N[*:1]; Palmitoyl = CCCCCCCCCCCCCCCC(=O)*; NMeI = CC[C@H](C)[C@H](NC)C(=O)O; AEEA = NCCOCCOCC(=O)O

target: T1, human CRHR2b (Homo sapiens, UniProt Q13324); assay: human CRHR2b cell-based cAMP assay; conditions: not given
T1 construct: expressed in transfected cells; host or cells: Chinese Hamster Ovary (CHO) cells, transient transfection
T1 sequence (Q13324 1-438 isoform Q13324-2): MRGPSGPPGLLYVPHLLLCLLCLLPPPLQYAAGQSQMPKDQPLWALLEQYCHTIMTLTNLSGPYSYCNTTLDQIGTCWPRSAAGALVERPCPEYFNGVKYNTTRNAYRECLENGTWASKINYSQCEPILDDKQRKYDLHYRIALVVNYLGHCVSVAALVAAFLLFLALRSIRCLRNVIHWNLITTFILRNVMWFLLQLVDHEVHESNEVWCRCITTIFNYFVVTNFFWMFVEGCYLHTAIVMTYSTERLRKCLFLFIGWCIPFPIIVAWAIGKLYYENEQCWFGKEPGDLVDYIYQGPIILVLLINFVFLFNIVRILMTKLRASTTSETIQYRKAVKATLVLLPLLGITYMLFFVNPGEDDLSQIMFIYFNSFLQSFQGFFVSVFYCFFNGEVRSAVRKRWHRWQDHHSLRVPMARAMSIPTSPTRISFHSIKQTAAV
Summary of the method: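 ED50 values are means ± SEM over several runs, curve-fitted from cAMP in pmol, calibrated against unlabeled-cAMP standards. Detection was HTRF competition, ratio 665/620 nm, after 30 min agonist exposure at 37 °C.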

| Compound | EC50 |
| --- | --- |
| CC[C@H](C)[C@H](N)C(=O)N[C@H](C(=O)N[C@@H](CC(C)C)C(=O)N[C@@H](CO)C(=O)N[C@@H](CC(C)C)C(=O)N[C@@H](CC(=O)O)C(=O)N[C@H](C(=O)N1CCC[C@H]1C(=O)N[C@H](C(=O)NCC(=O)N[C@@H](CC(C)C)C(=O)N[C@@H](CC(C)C)C(=O)N[C@@H](CCC(N)=O)C(=O)N[C@H](C(=O)N[C@@H](CC(C)C)C(=O)N[C@@H](CC(C)C)C(=O)N[C@@H](CCCCNC(=O)COCCOCCNC(=O)COCCOCCNC(=O)CC[C@H](NC(=O)CC[C@H](NC(=O)CCCCCCCCCCCCCCCCC(=O)O)C(=O)O)C(=O)O)C(=O)N[C@@H](CCC(N)=O)C(=O)N[C@@H](CCC(=O)O)C(=O)N[C@@H](CCCCN)C(=O)N[C@@H](CCC(N)=O)C(=O)N[C@@H](CCC(=O)O)C(=O)N[C@@H](CCCCN)C(=O)N[C@@H](CCC(=O)O)C(=O)N[C@@H](CCCCN)C(=O)N[C@@H](CCC(N)=O)C(=O)N[C@@H](CCC(N)=O)C(=O)N[C@@H](C)C(=O)N[C@H](C(=O)N[C@H](C(=O)N[C@@H](CC(N)=O)C(=O)N[C@@H](C)C(=O)N[C@@H](CCC(N)=O)C(=O)N[C@H](C(=O)N[C@@H](CC(C)C)C(=O)N[C@@H](C)C(=O)N[C@@H](Cc1c[nH]cn1)C(=O)N[C@H](C(N)=O)C(C)C)[C@@H](C)CC)[C@@H](C)O)[C@@H](C)O)[C@@H](C)CC)[C@@H](C)CC)C(C)C)C(C)C [Compound 43] (H-IVLSLDVPIGLLQILLK([AEEA-AEEA-γGlu-γGlu-C18 diacid])QEKQEKEKQQATTNAQILAHV-NH2) | 0.0126 µM |

same assay, conditions: cAMP assay; Table 26, compounds of Example 9; read-out: hCRHR2b Average EC50

| Compound | EC50 |
| --- | --- |
| CCCCCCCCCCCCCCCC(=O)N[C@@H](CCC(=O)NCCCC[C@H](NC(=O)[C@H](CCCCN)NC(=O)[C@H](CCC(=O)O)NC(=O)[C@H](CCC(N)=O)NC(=O)[C@H](CCCCN)NC(=O)[C@H](CCC(=O)O)NC(=O)[C@H](CCC(N)=O)NC(=O)[C@H](CCC(=O)O)NC(=O)[C@H](CC(C)C)NC(=O)[C@H](CC(C)C)NC(=O)[C@@H](NC(=O)[C@H](CCC(N)=O)NC(=O)[C@H](CC(C)C)NC(=O)[C@H](CC(C)C)NC(=O)CNC(=O)[C@@H](NC(=O)[C@@H]1CCCN1C(=O)[C@@H](NC(=O)[C@H](CC(=O)O)NC(=O)[C@H](CC(C)C)NC(=O)[C@H](CO)NC(=O)[C@H](CC(C)C)NC(=O)[C@@H](NC(=O)[C@@H](N)[C@@H](C)CC)C(C)C)C(C)C)[C@@H](C)CC)[C@@H](C)CC)C(=O)N[C@@H](CCCCN)C(=O)N[C@@H](CCC(N)=O)C(=O)N[C@@H](CCC(N)=O)C(=O)N[C@@H](C)C(=O)N[C@H](C(=O)N[C@H](C(=O)N[C@@H](CC(N)=O)C(=O)N[C@@H](C)C(=O)N[C@@H](CCCNC(=N)N)C(=O)N[C@H](C(=O)N[C@@H](CC(C)C)C(=O)N[C@@H](C)C(=O)N[C@@H](CCCNC(=N)N)C(=O)N[C@H](C(N)=O)C(C)C)[C@@H](C)CC)[C@@H](C)O)[C@@H](C)O)C(=O)O [Compound 29] (H-IVLSLDVPIGLLQILLEQEKQEKK([γGlu-Palmitoyl])KQQATTNARILARV-NH2) | 0.0647 µM |
| CC[C@H](C)[C@H](NC)C(=O)N[C@H](C(=O)N[C@@H](CC(C)C)C(=O)N[C@@H](CO)C(=O)N[C@@H](CC(C)C)C(=O)N[C@@H](CC(=O)O)C(=O)N[C@H](C(=O)N1CCC[C@H]1C(=O)N[C@H](C(=O)NCC(=O)N[C@@H](CC(C)C)C(=O)N[C@@H](CC(C)C)C(=O)N[C@@H](CCC(N)=O)C(=O)N[C@H](C(=O)N[C@@H](CC(C)C)C(=O)N[C@@H](CC(C)C)C(=O)N[C@@H](CCC(=O)O)C(=O)N[C@@H](CCC(N)=O)C(=O)N[C@@H](CCC(=O)O)C(=O)N[C@@H](CCCCN)C(=O)N[C@@H](CCC(N)=O)C(=O)N[C@@H](CCC(=O)O)C(=O)N[C@@H](CCCCN)C(=O)N[C@@H](CCC(=O)O)C(=O)N[C@@H](CCCCN)C(=O)N[C@@H](CCC(N)=O)C(=O)N[C@@H](CCC(N)=O)C(=O)N[C@@H](C)C(=O)N[C@@H](CCCCNC(=O)CC[C@H](NC(=O)COCCOCCNC(=O)CC[C@H](NC(=O)CC[C@H](NC(=O)CCCCCCCCCCCCCCCCCCC(=O)O)C(=O)O)C(=O)O)C(=O)O)C(=O)N[C@H](C(=O)N[C@@H](CC(N)=O)C(=O)N[C@@H](C)C(=O)N[C@@H](CCC(N)=O)C(=O)N[C@H](C(=O)N[C@@H](CC(C)C)C(=O)N[C@@H](C)C(=O)N[C@@H](CCC(N)=O)C(=O)N[C@H](C(N)=O)C(C)C)[C@@H](C)CC)[C@@H](C)O)[C@@H](C)CC)[C@@H](C)CC)C(C)C)C(C)C [Compound 61] (H-[NMeI]VLSLDVPIGLLQILLEQEKQEKEKQQAK([γGlu-AEEA-γGlu-γGlu-C20 diacid])TNAQILAQV-NH2) | 0.0025 µM |
| CCCCCCCCCCCCCCCC(=O)N[C@@H](CCC(=O)NCCCC[C@H](NC(=O)[C@H](CCC(N)=O)NC(=O)[C@H](CCC(=O)O)NC(=O)[C@H](CC(C)C)NC(=O)[C@H](CC(C)C)NC(=O)[C@@H](NC(=O)[C@H](CCC(N)=O)NC(=O)[C@H](CC(C)C)NC(=O)[C@H](CC(C)C)NC(=O)CNC(=O)[C@@H](NC(=O)[C@@H]1CCCN1C(=O)[C@@H](NC(=O)[C@H](CC(=O)O)NC(=O)[C@H](CC(C)C)NC(=O)[C@H](CO)NC(=O)[C@H](CC(C)C)NC(=O)[C@@H](NC(=O)[C@@H](N)[C@@H](C)CC)C(C)C)C(C)C)[C@@H](C)CC)[C@@H](C)CC)C(=O)N[C@@H](CCCCN)C(=O)N[C@@H](CCC(N)=O)C(=O)N[C@@H](CCC(=O)O)C(=O)N[C@@H](CCCCN)C(=O)N[C@@H](CCC(=O)O)C(=O)N[C@@H](CCCCN)C(=O)N[C@@H](CCC(N)=O)C(=O)N[C@@H](CCC(N)=O)C(=O)N[C@@H](C)C(=O)N[C@H](C(=O)N[C@H](C(=O)N[C@@H](CC(N)=O)C(=O)N[C@@H](C)C(=O)N[C@@H](CCCNC(=N)N)C(=O)N[C@H](C(=O)N[C@@H](CC(C)C)C(=O)N[C@@H](C)C(=O)N[C@@H](CCCNC(=N)N)C(=O)N[C@H](C(N)=O)C(C)C)[C@@H](C)CC)[C@@H](C)O)[C@@H](C)O)C(=O)O [Compound 24, IVLSLDVPIGLLQILLEQK*KQEKEKQQATTNARILARV-NH2] (H-IVLSLDVPIGLLQILLEQK([γGlu-Palmitoyl])KQEKEKQQATTNARILARV-NH2) | 0.0253 µM |
| CC[C@H](C)[C@H](NC)C(=O)N[C@H](C(=O)N[C@H](C(=O)N[C@@H](CO)C(=O)N[C@@H](CC(C)C)C(=O)N[C@@H](CC(=O)O)C(=O)N[C@H](C(=O)N1CCC[C@H]1C(=O)N[C@H](C(=O)NCC(=O)N[C@@H](CC(C)C)C(=O)N[C@@H](CC(C)C)C(=O)N[C@@H](CCC(N)=O)C(=O)N[C@H](C(=O)N[C@@H](CC(C)C)C(=O)N[C@@H](CC(C)C)C(=O)N[C@@H](CCC(=O)O)C(=O)N[C@@H](CCC(N)=O)C(=O)N[C@@H](CCC(=O)O)C(=O)N[C@@H](CCCCN)C(=O)N[C@@H](CCC(N)=O)C(=O)N[C@@H](CCC(=O)O)C(=O)N[C@@H](CCCCN)C(=O)N[C@@H](CCC(=O)O)C(=O)N[C@@H](CCCCN)C(=O)N[C@@H](CCC(N)=O)C(=O)N[C@@H](CCC(N)=O)C(=O)N[C@@H](C)C(=O)N[C@@H](CCCCNC(=O)CC[C@H](NC(=O)COCCOCCNC(=O)COCCOCCNC(=O)CC[C@H](NC(=O)CC[C@H](NC(=O)CCCCCCCCCCCCCCCCCCC(=O)O)C(=O)O)C(=O)O)C(=O)O)C(=O)N[C@H](C(=O)N[C@@H](CC(N)=O)C(=O)N[C@@H](C)C(=O)N[C@@H](CCC(=O)O)C(=O)N[C@H](C(=O)N[C@@H](CC(C)C)C(=O)N[C@@H](C)C(=O)N[C@@H](CCC(N)=O)C(=O)N[C@H](C(N)=O)C(C)C)[C@@H](C)CC)[C@@H](C)O)[C@@H](C)CC)[C@@H](C)CC)C(C)C)[C@@H](C)O)C(C)C [Compound 66] (H-[NMeI]VTSLDVPIGLLQILLEQEKQEKEKQQAK([γGlu-AEEA-AEEA-γGlu-γGlu-C20 diacid])TNAEILAQV-NH2) | 0.00145 µM |
| CCCCCCCCCCCCCCCC(=O)N[C@@H](CCC(=O)NCCCC[C@H](NC(=O)[C@H](CCC(=O)O)NC(=O)[C@H](CCCCN)NC(=O)[C@H](CCC(=O)O)NC(=O)[C@H](CCC(N)=O)NC(=O)[C@H](CCCCN)NC(=O)[C@H](CCC(=O)O)NC(=O)[C@H](CCC(N)=O)NC(=O)[C@H](CCC(=O)O)NC(=O)[C@H](CC(C)C)NC(=O)[C@H](CC(C)C)NC(=O)[C@@H](NC(=O)[C@H](CCC(N)=O)NC(=O)[C@H](CC(C)C)NC(=O)[C@H](CC(C)C)NC(=O)CNC(=O)[C@@H](NC(=O)[C@@H]1CCCN1C(=O)[C@@H](NC(=O)[C@H](CC(=O)O)NC(=O)[C@H](CC(C)C)NC(=O)[C@H](CO)NC(=O)[C@H](CC(C)C)NC(=O)[C@@H](NC(=O)[C@@H](N)[C@@H](C)CC)C(C)C)C(C)C)[C@@H](C)CC)[C@@H](C)CC)C(=O)N[C@@H](CCC(N)=O)C(=O)N[C@@H](CCC(N)=O)C(=O)N[C@@H](C)C(=O)N[C@H](C(=O)N[C@H](C(=O)N[C@@H](CC(N)=O)C(=O)N[C@@H](C)C(=O)N[C@@H](CCCNC(=N)N)C(=O)N[C@H](C(=O)N[C@@H](CC(C)C)C(=O)N[C@@H](C)C(=O)N[C@@H](CCCNC(=N)N)C(=O)N[C@H](C(N)=O)C(C)C)[C@@H](C)CC)[C@@H](C)O)[C@@H](C)O)C(=O)O [Compound 30] (H-IVLSLDVPIGLLQILLEQEKQEKEK([γGlu-Palmitoyl])QQATTNARILARV-NH2) | 0.0124 µM |
